According to paper PMC11267533, “Ligandability at the Membrane Interface of GPx4 Revealed through a Reverse Micelle Fragment Screening Platform” (JACS Au, 2024):
Like-named read-outs stand apart in the source and are kept apart here.

Target: T1, GPx4 embedded in a mmRM (membrane-bound GPx4) (Homo sapiens, UniProt P36969, U73G)
T1 construct: Truncated U46G-GPx4 with a TEV cleavable poly-histidine tag was inserted into vector; poly-histidine tag with TEV cleavage site; host or cells: BL21 (DE3) E. coli
T1 sequence (P36969 1-170 isoform P36969-2 U46G): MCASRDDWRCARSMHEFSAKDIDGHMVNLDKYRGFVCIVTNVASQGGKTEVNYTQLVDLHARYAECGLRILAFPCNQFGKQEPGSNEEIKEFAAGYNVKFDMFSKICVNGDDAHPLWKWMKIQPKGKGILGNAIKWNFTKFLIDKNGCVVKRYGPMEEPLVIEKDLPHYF
Experiment: NMR (15N-HSQC) titration of fragments against GPx4 embedded in DLPC/DPC mmRM, apparent Kd
Assay type: binding
Details: ± standard error of global Kd fit
Source text: To assess whether the fragment hits are bound specifically to GPx4 and to calculate affinity, we performed NMR-based titrations. Chemical shift changes that approach saturation in a structurally localized manner target indicate specific binding.[24] This allows true positive hits to be separated from false positives and weak or nonspecific binders. Additionally, NMR-based titrations allow for the extraction of a binding affinity (Kd). To calculate apparent Kd values, CSP cutoffs were used to isolate the resonances with most shifting using 1 standard deviation above the average CSP. All 14 fragments identified from the deconvolutions were titrated up to 400 μM or 1 mM if needed. Of the 14, 9 had apparent Kds less than 1 mM and were identified as hits. Observed here is a 0.47% hit rate with best affinities in the μM range for the membrane-bound form of GPx4 and is consistent with ligandable and potentially druggable targets.[14],[57] […] The remaining five fragments, 10–14, were ruled out as weaker (>∼1 mM) or nonspecific binders. Weak or nonspecific binding could indicate that fragments partitioning to the mmRM surface and perturb the protein spectrum through a simple change in the chemical environment at the interface, among other possible nonspecific effects. […] We note that the weaker and nonspecific fragments were only eliminated due to interaction modes that are too weak or unproductive for advancement toward inhibitors; yet, binding was nevertheless detected. […] We note here that apparent Kd values reported in this study account for a total amount of fragment and protein within the mmRM sample and are not corrected for any potential concentrating effect due to localization of fragment to the mmRM surface or water phase.
NMR samples were prepared with ^15N-isotopically labeled protein with 10% v/v of d-pentane as the lock solvent (Sigma-Aldrich, St. Louis, MO). All NMR spectra were collected at 25 °C on a 700 MHz Bruker Avance III instrument. All NMR spectra were processed using NMRPipe[66] and analyzed using NMRFAM-Sparky.[67] Chemical shifts for GPx4 (BMRB 50955) were assigned from those previously published.[52] Chemical shift perturbations from ^15N-HSQC spectra were calculated using the following formula [drawing 1] where Δ^1H and Δ^15N are the changes in ^1H and ^15N chemical shifts, respectively.
The 14 fragments isolated from deconvolutions were purchased from Life Chemicals (fragments 1, 4, 6, and 11, and 12–14), Combi-Blocks (2, 3, 5, 9, and 10), or ChemBridge Hit2Lead (7 and 8). All fragment 1 and 5 analogues were also purchased from ChemBridge Hit2Lead. Fragments and analogues purchased from Life Chemicals and Hit2Lead are 90+% pure, while the fragments purchased from Combi-Blocks ranged from 95 to 97% pure. The day prior to the titration, a double-volume sample of encapsulated GPx4 was made before being split up into two separate vials. Half of the sample was added to the vial containing predried fragment corresponding to 400 μM or 1 mM. […] If they were, then the two samples were mixed to produce varying concentrations and to measure a titration curve. The top-shifting resonances were determined by calculating the average CSP at 400 μM or 1 mM and 1 and 2 standard deviations (σ) above that average. The CSP for the resonance at each fragment concentration was extracted and fit to a curve using an affinity equation that accounts for ligand depletion [drawing 2]
Any resonance producing a curve with an R^2 below 0.85 was removed, and the remaining resonances were then used to fit a global apparent Kd curve for the fragment hit. Standard error for Kd from the global fit of all of the selected residues is reported.

[1] = Table 2, analogues of fragment 5, GPx4 in mmRM, read-out: Apparent Kd
[2] = Table 1, GPx4 in DLPC/DPC mmRM, NMR titration up to 400 μM or 1 mM, read-out: Kd (apparent)

Kd [1] [µM] | Kd [2] [µM] | SMILES
> 400 | – | O=c1oc2c(-c3ccccc3)cc(O)cc2s1 [Analog 5.1]
> 400 | – | Cc1cccc(-c2cc(O)cc3sc(=O)oc23)c1 [Analog 5.2]
85 ± 50 | – | O=c1oc2c(-c3ccccc3Cl)cc(O)cc2s1 [Analog 5.3]
40 ± 20 | – | O=c1oc2c(-c3ccc(Cl)cc3)cc(O)cc2s1 [Analog 5.4]
25 ± 10 | – | O=c1oc2c(-c3cccc(Cl)c3)cc(O)cc2s1 [Analog 5.6]
15 ± 10 | – | Cc1ccc(-c2cc(O)cc3sc(=O)oc23)cc1Cl [Analog 5.7]
– | 110 ± 65 | N#Cc1ccc(CC(=O)O)cc1 [Fragment 2]
– | 140 ± 50 | NCCS(=O)(=O)c1ccccc1 [Fragment 3]
– | 140 ± 85 | COCC(=O)N1CCOc2ccccc2C1 [Fragment 4]
– | 310 ± 100 | NCc1nc(-c2ncccn2)no1 [Fragment 7]
– | 370 ± 165 | CC(=O)c1c(C)nn(CC(=O)O)c1C [Fragment 8]
– | 840 ± 300 | CCOC(=O)c1ccc(Cl)nn1 [Fragment 9]
